In US20170210751A1, “PRMT5 INHIBITORS AND USES THEREOF” (Epizyme, Inc., priority 2014, published 2017) one finds EC50 data, which are given here for 32 compounds.

The structures appear in SMILES notation.

This assay deals with Symmetric di-Methyl Arginine in Z-138 cells. Nature of the assay: Z-138 Methylation Assay (In Cell Western for symmetric di-methyl arginine). It is filed as cell-based. Conditions: Homo sapiens, 96 hours incubation, symmetric di-methyl arginine normalised to DNA content, read-out: ICW EC50. A digest of the protocol:
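Z-138 cells were treated with compound for 96 h at 37 °C, then fixed on poly-D-lysine plates. Symmetric di-methyl arginine was detected by In-Cell Western (800 nm) with DRAQ5 DNA normalisation (700 nm). Percent inhibition used DMSO and 3 μM reference-compound controls; IC50 curves came from triplicate wells.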
In the case of `CC(=O)N1CC(Nc2cc(C(=O)NC[C@H](O)CN3CCc4ccncc4C3)ncn2)C1` [Compound 2-22], the EC50 is > 1 µM.

On to `CC(=O)N1CCC(Nc2cc(C(=O)NC[C@H](O)CN3CCc4nc(C)sc4C3)ncn2)CC1` [Compound 1-7, (S)-6-((1-acetylpiperidin-4-yl)amino)-N-(2-hydroxy-3-(2-methyl-6,7-dihydrothiazolo[5,4-c]pyridin-5(4H)-yl)propyl)pyrimidine-4-carboxamide], for which the EC50 was > 1 µM.

In the case of `CC(=O)N1CCC(Nc2cc(C(=O)NC[C@H](O)CN3CCc4[nH]cnc4C3)ccn2)CC1` [Compound 3-36, (S)-2-((1-acetylpiperidin-4-yl)amino)-N-(3-(6,7-dihydro-1H-imidazo[4,5-c]pyridin-5(4H)-yl)-2-hydroxypropyl)isonicotinamide], the EC50 is > 1 µM.

For the compound `Cc1csc2c1CN(C[C@@H](O)CNC(=O)c1cc(NC3COC3)ncn1)CC2` [Compound 1-11, (S)—N-(2-hydroxy-3-(3-methyl-6,7-dihydrothieno[3,2-c]pyridin-5(4H)-yl)propyl)-6-(oxetan-3-ylamino)pyrimidine-4-carboxamide], the EC50 was < 0.1 µM.

As for `CC(=O)N1CC(Nc2cc(C(=O)NC[C@H](O)CN3CCc4[nH]c(C)nc4C3)ncn2)C1` [Compound 3-47], the EC50 was > 1 µM.

In the case of `O=C(COc1cccc2cccnc12)NCC(O)CN1CCc2sccc2C1` (centres unmarked) [Compound 1-4, N-(2-hydroxy-3-{4H,5H,6H,7H-thieno[3,2-c]pyridin-5-yl}propyl)-2-(quinolin-8-yloxy)acetamide], the EC50 was < 0.1 µM.

Turning to `CC(=O)N1CCC(Nc2cc(C(=O)NC[C@H](O)CN3CCc4oc(C)nc4C3)ccn2)CC1` [Compound 4-4, (S)-2-((1-acetylpiperidin-4-yl)amino)-N-(2-hydroxy-3-(2-methyl-6,7-dihydrooxazolo[4,5-c]pyridin-5(4H)-yl)propyl)isonicotinamide], the EC50 is > 1 µM.

As for `CC(=O)N1CCC(Nc2cc(C(=O)NC[C@H](O)CN3CCc4nc(N)sc4C3)ncn2)CC1` [Compound 1-38], the EC50 is > 1 µM.

Turning to `O=C(NC[C@H](O)CN1CCc2[nH]cnc2C1)c1cc(NC2COC2)ncn1` [Compound 3-38, (S)—N-(3-(6,7-dihydro-1H-imidazo[4,5-c]pyridin-5(4H)-yl)-2-hydroxypropyl)-6-(oxetan-3-ylamino)pyrimidine-4-carboxamide], the EC50 is > 1 µM.

For the compound `CC(=O)N1CCC(Nc2cc(C(=O)NC[C@H](O)CN3CCc4ncsc4C3)ccn2)CC1` [Compound 1-19, (S)-2-((1-acetylpiperidin-4-yl)amino)-N-(3-(6,7-dihydrothiazolo[5,4-c]pyridin-5(4H)-yl)-2-hydroxypropyl)isonicotinamide], the EC50 was > 1 µM.

In the case of `CC(=O)N1CCC(Nc2cc(C(=O)NC[C@H](O)CN3CCc4sccc4C3)ncn2)CC1` [Compound 1-3, (S)-6-((1-acetylpiperidin-4-yl)amino)-N-(3-(6,7-dihydrothieno[3,2-c]pyridin-5(4H)-yl)-2-hydroxypropyl)pyrimidine-4-carboxamide], the EC50 is < 0.1 µM.

On to `O=C(NC[C@H](O)CN1CCc2sccc2C1)c1cc(NC2COC2)ncn1` [Compound 1-1, (S)—N-(3-(6,7-dihydrothieno[3,2-c]pyridin-5(4H)-yl)-2-hydroxypropyl)-6-(oxetan-3-ylamino)pyrimidine-4-carboxamide], for which the EC50 was < 0.1 µM.

Take `CC(=O)N1CC(Nc2cc(C(=O)NC[C@H](O)CN3CCc4c(ncn4C)C3)ncn2)C1` [Compound 3-45]: the EC50 was > 1 µM.

As for `CC(=O)N1CC(Nc2cc(C(=O)NC[C@H](O)CN3CCc4cn[nH]c4C3)ncn2)C1` [Compound 3-44], the EC50 is > 1 µM.

On to `Cc1nc2c(o1)CCN(C[C@@H](O)CNC(=O)c1cc(NC3COC3)ncn1)C2` [Compound 4-1, (S)—N-(2-hydroxy-3-(2-methyl-6,7-dihydrooxazolo[4,5-c]pyridin-5(4H)-yl)propyl)-6-(oxetan-3-ylamino)pyrimidine-4-carboxamide], for which the EC50 was > 1 µM.

With `CC(=O)N1CCC(Nc2cc(C(=O)NC[C@H](O)CN3CCc4cccnc4C3)ncn2)CC1` [Compound 2-11, (S)-6-((1-acetylpiperidin-4-yl)amino)-N-(3-(5,6-dihydro-1,7-naphthyridin-7(8H)-yl)-2-hydroxypropyl)pyrimidine-4-carboxamide], the EC50 is 0.101 to 1 µM.

Regarding `CC(=O)N1CC(Nc2cc(C(=O)NC[C@H](O)CN3CCc4nc(N)sc4C3)ncn2)C1` [Compound 1-29], the EC50 is > 1 µM.

With `CC(=O)N1CC(Nc2cc(C(=O)NC[C@H](O)CN3CCc4ncsc4C3)ncn2)C1` [Compound 1-17, (S)-6-((1-acetylazetidin-3-yl)amino)-N-(3-(6,7-dihydrothiazolo[5,4-c]pyridin-5(4H)-yl)-2-hydroxypropyl)pyrimidine-4-carboxamide], the EC50 was > 1 µM.

As to `Nc1nc2c(s1)CCN(C[C@@H](O)CNC(=O)c1cc(NC3COC3)ncn1)C2` [Compound 1-20, (S)—N-(3-(2-amino-6,7-dihydrothiazolo[4,5-c]pyridin-5(4H)-yl)-2-hydroxypropyl)-6-(oxetan-3-ylamino)pyrimidine-4-carboxamide], the EC50 was > 1 µM.

As to `CC(=O)N1CCC(Nc2cc(C(=O)NC[C@H](O)CN3CCc4cnccc4C3)ccn2)CC1` [Compound 2-18], the EC50 fell in the range of 0.101 to 1 µM.

In the case of `CC(=O)N1CCC(Nc2cc(C(=O)NC[C@H](O)CN3CCc4oc(C)nc4C3)ncn2)CC1` [Compound 4-3, (S)-6-((1-acetylpiperidin-4-yl)amino)-N-(2-hydroxy-3-(2-methyl-6,7-dihydrooxazolo[4,5-c]pyridin-5(4H)-yl)propyl)pyrimidine-4-carboxamide], the EC50 was > 1 µM.

Consider `CC(=O)N1CCC(Nc2cc(C(=O)NC[C@H](O)CN3CCc4nc(C)[nH]c4C3)ccn2)CC1` [Compound 3-54], for which the EC50 was > 1 µM.

On to `CC(=O)N1CCC(Nc2cc(C(=O)NC[C@H](O)CN3CCc4nn(C)cc4C3)ccn2)CC1` [Compound 3-53], for which the EC50 is > 1 µM.

Take `CC(=O)N1CCC(Nc2cc(C(=O)NC[C@H](O)CN3CCc4nn(C)cc4C3)ncn2)CC1` [Compound 3-57]: the EC50 was > 1 µM.

As to `CC(=O)N1CC(Nc2cc(C(=O)NC[C@H](O)CN3CCc4ncccc4C3)ncn2)C1` [Compound 2-9, (S)-6-((1-acetylazetidin-3-yl)amino)-N-(3-(7,8-dihydro-1,6-naphthyridin-6(5H)-yl)-2-hydroxypropyl)pyrimidine-4-carboxamide], the EC50 was in the range of 0.101 to 1 µM.

Turning to `CC(=O)N1CC(Nc2cc(C(=O)NC[C@H](O)CN3CCc4cnccc4C3)ncn2)C1` [Compound 2-16], the EC50 was > 1 µM.

Take `CC(=O)N1CCC(Nc2cc(C(=O)NC[C@H](O)CN3CCc4ncn(C)c4C3)ccn2)CC1` [Compound 3-24, (S)-2-((1-acetylpiperidin-4-yl)amino)-N-(2-hydroxy-3-(3-methyl-6,7-dihydro-3H-imidazo[4,5-c]pyridin-5(4H)-yl)propyl)isonicotinamide]: the EC50 is > 1 µM.

Turning to `CC(=O)N1CCC(Nc2cc(C(=O)NC[C@H](O)CN3CCc4sc(C)nc4C3)ncn2)CC1` [Compound 1-36], the EC50 was > 1 µM.

Take `CC(=O)N1CCC(Nc2cc(C(=O)NC[C@H](O)CN3CCc4c(cnn4C)C3)ccn2)CC1` [Compound 3-52]: the EC50 was > 1 µM.

Consider `CC(=O)N1CC(Nc2cc(C(=O)NC[C@H](O)CN3CCc4cccnc4C3)ncn2)C1` [Compound 2-13], for which the EC50 lay in the range of 0.101 to 1 µM.

Consider `O=C(COc1cccc2cccnc12)NCC(O)CN1CCc2cnccc2C1` (centres unmarked) [Compound 2-7, N-[2-hydroxy-3-(1,2,3,4-tetrahydro-2,6-naphthyridin-2-yl)propyl]-2-(quinolin-8-yloxy)acetamide], for which the EC50 is > 1 µM.

On to `O=C(NC[C@H](O)CN1CCc2ncsc2C1)c1cc(NC2COC2)ncn1` [Compound 1-16, (S)—N-(3-(6,7-dihydrothiazolo[5,4-c]pyridin-5(4H)-yl)-2-hydroxypropyl)-6-(oxetan-3-ylamino)pyrimidine-4-carboxamide], for which the EC50 is > 1 µM.
